# Assay: In vitro metabolism, liver microsomes
# Format: in vitro ADME, mouse
# Protocol: Compounds were spiked into microsomal matrix prepared in 0.1 M pH 7.4 phosphate buffer containing magnesium chloride (final concentration of 3.3 mM), equilibrated for 5-10 min at 37°C. The reaction was initiated with the addition of freshly prepared solution of NADPH (final 1.3 mM). Control samples without co-factor were included for comparison. Aliquots of the reaction mixtures were taken periodically over 60 min and quenched with acetonitrile containing internal standards (metolazone and diazepam). Quenched samples were maintained on ice for approximately 20-30 min, centrifuged (for 5 min) and the supernatant was analyzed by LC-MS.
# In vitro intrinsic clearance (CLint, μL/min/mg or μL/min/10^6 cells) values were calculated from the apparent first order degradation rate constant divided by the microsome concentration or the hepatocyte cell number (10^6 viable cells/mL). In vitro CLint values were then divided by the fraction unbound in the in vitro test system (to give CLint,u) and scaled to in vivo values (mL/min/kg) using published physiological scaling factors ([28]). Blood clearance in each species was then calculated using the well-stirred model of hepatic extraction (equation 2) where Q is the hepatic blood flow and fu,blood is calculated from fu,plasma/B:P: [2] PredictedCLblood=Q x fu,blood x CLint,u/Q+fu,blood x CLint,u
# Blood clearance values were converted to plasma clearance by multiplying by the B:P.
structure (smiles),measurement,setting,value
Cc1[nH]c2nc(N)nc(C)c2c1-c1ccc(C#N)c2c1OCO2 [DNDI-6174],Microsome predicted in vivo CLplasma,Mouse,12 mL/min/kg
same,In vitro Microsome CLint,"Mouse, 2 independent experiments",13 ± 0.38 µL/min/mg
same,microsomal CLint at 0.5 µM,"mouse, liver microsomes, pH 7.4, Mouse, 2 independent experiments, read-out: In vitro Microsome CLint",17 ± 0.59 µL/min/mg

# Source: paper PMC7615677 (Science translational medicine, 2023)
